Reference: patent publication US20260000692A1, “Substituted N-(Pyridin-2-yl)Acetamide Derivatives as CDK12/13 Inhibitors” (Aurigene Oncology Limited, priority 2022, published 2026)
Like-named read-outs stand apart in the source and are kept apart here.

Target: CDK12 (Homo sapiens, UniProt Q9NYV4)
Assay: Biochemical assay for CDK12 (LANCE TR-FRET, IC50 determination)
Details: for IC50: CDK12, IC50 class; for inhibition at 10 µM: read-out: CDK12 % Inhibition @ 10 μM
Outline: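 30 nM CDK12 phosphorylated 100 nM ULight-4E-BP1 (Thr37/Thr46) peptide at 100 µM ATP, as printed, in HEPES pH 7.5 buffer with MgCl2 and DTT. Compound and enzyme were preincubated 60 min, then reacted 60 min at room temperature before stopping with EDTA and Eu anti-phospho antibody. TR-FRET 665/615 ratio gave sigmoidal IC50 fits.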

Chain of CDK12 (Q9NYV4 whole entry): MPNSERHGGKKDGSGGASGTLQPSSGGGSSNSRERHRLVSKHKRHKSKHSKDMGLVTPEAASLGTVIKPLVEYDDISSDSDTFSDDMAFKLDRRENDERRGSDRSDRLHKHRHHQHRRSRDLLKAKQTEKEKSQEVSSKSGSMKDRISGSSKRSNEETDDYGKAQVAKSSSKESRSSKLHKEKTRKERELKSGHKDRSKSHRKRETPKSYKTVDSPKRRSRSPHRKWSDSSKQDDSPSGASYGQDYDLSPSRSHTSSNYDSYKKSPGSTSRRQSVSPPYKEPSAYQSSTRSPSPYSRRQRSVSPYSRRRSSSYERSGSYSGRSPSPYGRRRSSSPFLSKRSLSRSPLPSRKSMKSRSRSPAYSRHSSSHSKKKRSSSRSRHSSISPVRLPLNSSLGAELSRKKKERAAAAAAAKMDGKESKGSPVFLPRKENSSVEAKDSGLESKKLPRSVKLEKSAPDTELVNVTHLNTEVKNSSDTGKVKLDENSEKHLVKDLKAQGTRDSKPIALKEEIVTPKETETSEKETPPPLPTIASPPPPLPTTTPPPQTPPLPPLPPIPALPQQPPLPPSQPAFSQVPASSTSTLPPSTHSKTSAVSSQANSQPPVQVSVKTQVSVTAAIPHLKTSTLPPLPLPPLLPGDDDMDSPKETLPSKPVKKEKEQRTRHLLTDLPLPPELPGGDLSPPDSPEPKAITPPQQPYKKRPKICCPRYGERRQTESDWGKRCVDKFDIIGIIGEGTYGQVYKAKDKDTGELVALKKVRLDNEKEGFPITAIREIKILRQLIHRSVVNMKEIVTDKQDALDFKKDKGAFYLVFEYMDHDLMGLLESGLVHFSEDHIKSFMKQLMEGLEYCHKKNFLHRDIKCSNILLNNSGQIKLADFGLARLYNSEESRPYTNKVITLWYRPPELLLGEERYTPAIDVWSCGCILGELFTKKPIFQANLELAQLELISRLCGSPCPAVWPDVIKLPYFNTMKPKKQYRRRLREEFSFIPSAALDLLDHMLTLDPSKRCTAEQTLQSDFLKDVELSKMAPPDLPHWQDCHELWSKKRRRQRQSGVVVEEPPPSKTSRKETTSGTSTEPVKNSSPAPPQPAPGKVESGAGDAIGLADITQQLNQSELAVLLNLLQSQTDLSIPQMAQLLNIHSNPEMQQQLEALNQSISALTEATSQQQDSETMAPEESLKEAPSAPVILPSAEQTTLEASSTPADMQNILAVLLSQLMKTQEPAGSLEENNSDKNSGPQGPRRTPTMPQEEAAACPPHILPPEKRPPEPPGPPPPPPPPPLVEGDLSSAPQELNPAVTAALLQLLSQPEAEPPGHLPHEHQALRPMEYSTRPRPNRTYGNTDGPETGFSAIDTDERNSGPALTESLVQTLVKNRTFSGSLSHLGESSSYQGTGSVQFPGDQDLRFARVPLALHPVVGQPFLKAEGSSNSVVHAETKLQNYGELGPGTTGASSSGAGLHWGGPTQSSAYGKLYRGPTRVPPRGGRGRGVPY
Chain of CDK12 (O75909 whole entry partner): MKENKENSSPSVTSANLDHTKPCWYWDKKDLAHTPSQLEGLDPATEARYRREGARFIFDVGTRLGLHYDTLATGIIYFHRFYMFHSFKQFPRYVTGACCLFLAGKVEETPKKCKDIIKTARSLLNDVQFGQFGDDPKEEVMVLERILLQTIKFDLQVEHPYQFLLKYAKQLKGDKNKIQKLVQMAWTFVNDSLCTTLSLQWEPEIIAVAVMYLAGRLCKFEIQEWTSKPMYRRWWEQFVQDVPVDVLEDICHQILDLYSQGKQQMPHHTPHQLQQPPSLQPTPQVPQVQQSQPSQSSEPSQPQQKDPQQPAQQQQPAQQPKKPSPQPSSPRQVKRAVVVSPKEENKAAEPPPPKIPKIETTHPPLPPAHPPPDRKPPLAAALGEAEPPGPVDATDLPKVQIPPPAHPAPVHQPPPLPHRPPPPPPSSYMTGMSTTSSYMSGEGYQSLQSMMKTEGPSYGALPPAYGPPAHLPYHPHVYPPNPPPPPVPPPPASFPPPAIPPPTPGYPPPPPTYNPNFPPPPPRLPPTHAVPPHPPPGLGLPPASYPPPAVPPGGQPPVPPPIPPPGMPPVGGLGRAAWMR

CNC(=O)C(C)Oc1cc(NC(=O)Cc2ccc(C3CCN(C#N)CC3)nc2)ncc1Cl (stereo not drawn) [Compound 82, 2-((5-chloro-2-(2-(6-(1-cyanopiperidin-4-yl)pyridin-3-yl)acetamido)pyridin-4-yl)oxy)-N-methylpropanamide]
IC50 (read-out: IC50 μM (in range)): 0.01 to 0.1 µM
inhibition at 10 µM (compound at 10 μM): 87%

CNC(=O)C(C)Oc1cc(NC(=O)Cc2ccc(-c3cccc(C#N)n3)nc2)ncc1Cl (racemic) [Compound 155, 2-((5-chloro-2-(2-(6′-cyano-[2,2′-bipyridin]-5-yl)acetamido)pyridin-4-yl)oxy)-N-methylpropanamide]
IC50 (read-out: IC50 μM (in range)): 0.01 to 0.1 µM
inhibition at 10 µM (compound at 10 μM): 97%

COc1cc(NC(=O)Cc2ccc(-c3cccc(C#N)c3)nc2)ncc1Cl [Compound 189, N-(5-chloro-4-methoxypyridin-2-yl)-2-(6-(3-cyanophenyl)pyridin-3-yl)acetamide]
IC50 (read-out: IC50 μM (in range)): > 0.1 µM
inhibition at 10 µM (compound at 10 μM): 82%

CP(C)(=O)c1cc(NC(=O)Cc2ccc(C3=CCCN(C#N)C3)nc2)ncc1Cl [Compound 135, N-(5-chloro-4-(dimethylphosphoryl)pyridin-2-yl)-2-(1′-cyano-1′,2′,5′,6′-tetrahydro-[2,3′-bipyridin]-5-yl)acetamide]
IC50 (read-out: IC50 μM (in range)): > 0.1 µM
inhibition at 10 µM (compound at 10 μM): 78%

COc1cc(NC(=O)Cc2ccc(C3=CC4CN(C#N)CC4C3)nc2)ncc1Cl (stereo not drawn) [Compound 75, N-(5-chloro-4-methoxypyridin-2-yl)-2-(6-(2-cyano-1,2,3,3a,4,6a-hexahydrocyclopenta[c]pyrrol-5-yl)pyridin-3-yl)acetamide]
IC50 (read-out: IC50 μM (in range)): < 0.01 µM
inhibition at 10 µM (compound at 10 μM): 96%

N#CN1CC=C(c2ccc(CC(=O)Nc3ccc(Cl)cn3)cn2)C1 [Compound 6, N-(5-chloropyridin-2-yl)-2-(6-(1-cyano-2,5-dihydro-1H-pyrrol-3-yl)pyridin-3-yl)acetamide]
IC50 (read-out: IC50 μM (in range)): < 0.01 µM
inhibition at 10 µM (compound at 10 μM): 78%

COc1cc(NC(=O)Cc2ccc(C3CC4CCC(C3)N4C#N)nc2)ncc1Cl (stereo not drawn) [Compound 74, N-(5-chloro-4-methoxypyridin-2-yl)-2-(6-(8-cyano-8-azabicyclo[3.2.1]octan-3-yl)pyridin-3-yl)acetamide]
IC50 (read-out: IC50 μM (in range)): < 0.01 µM
inhibition at 10 µM (compound at 10 μM): 100%

CNC(=O)[C@H](C)Oc1cc(NC(=O)Cc2ccc(-c3ccnc(C#N)c3)nc2)ncc1Cl [Compound 148, (S)-2-((5-chloro-2-(2-(2′-cyano-[2,4′-bipyridin]-5-yl)acetamido)pyridin-4-yl)oxy)-N-methylpropanamide]
IC50 (read-out: IC50 μM (in range)): 0.01 to 0.1 µM
inhibition at 10 µM (compound at 10 μM): 89%

N#CN1CC=C(c2ccc(CC(=O)Nc3cc(N4CCOCC4)c(Cl)cn3)cn2)CC1 [Compound 7, N-(5-chloro-4-morpholinopyridin-2-yl)-2-(1′-cyano-1′,2′,3′,6′-tetrahydro-[2,4′-bipyridin]-5-yl)acetamide]
IC50 (read-out: IC50 μM (in range)): 0.01 to 0.1 µM
inhibition at 10 µM (compound at 10 μM): 88%

N#CN1CCC(c2ccc(CC(=O)Nc3cc(O[C@@H]4CCOC4)c(Cl)cn3)cn2)CC1 [Compound 98, (R)-N-(5-chloro-4-((tetrahydrofuran-3-yl)oxy)pyridin-2-yl)-2-(6-(1-cyanopiperidin-4-yl)pyridin-3-yl)acetamide]
IC50 (read-out: IC50 μM (in range)): 0.01 to 0.1 µM
inhibition at 10 µM (compound at 10 μM): 87%

N#CN1CC=C(c2ccc(CC(=O)Nc3cc(OC4CCOC4)c(Cl)cn3)cn2)CC1 (stereo not drawn) [Compound 12, N-(5-chloro-4-((tetrahydrofuran-3-yl)oxy)pyridin-2-yl)-2-(1′-cyano-1′,2′,3′,6′-tetrahydro-[2,4′-bipyridin]-5-yl)acetamide]
IC50 (read-out: IC50 μM (in range)): < 0.01 µM
inhibition at 10 µM (compound at 10 μM): 84%

COc1cc(NC(=O)Cc2ccc(-c3cc(N4CC(OC)C4)cc(C#N)n3)nc2)ncc1Cl [Compound 193, N-(5-chloro-4-methoxypyridin-2-yl)-2-(6′-cyano-4′-(3-methoxyazetidin-1-yl)-[2,2′-bipyridin]-5-yl)acetamide]
IC50 (read-out: IC50 μM (in range)): > 0.1 µM
inhibition at 10 µM (compound at 10 μM): 68%

COc1cc(NC(=O)Cc2ccc(C3=CCN(C#N)C(C)C3)nc2)ncc1Cl (stereo not drawn) [Compound 65, N-(5-chloro-4-methoxypyridin-2-yl)-2-(1′-cyano-2′-methyl-1′,2′,3′,6′-tetrahydro-[2,4′-bipyridin]-5-yl)acetamide]
IC50 (read-out: IC50 μM (in range)): < 0.01 µM
inhibition at 10 µM (compound at 10 μM): 87%

CNC(=O)C(C)Oc1cc(NC(=O)Cc2ccc(C3CCCN(C#N)C3)nc2)ncc1Cl (single isomer, unassigned) [Compound 87, 2-((5-chloro-2-(2-(6-(1-cyanopiperidin-3-yl)pyridin-3-yl)acetamido)pyridin-4-yl)oxy)-N-methylpropanamide]
IC50 (read-out: IC50 μM (in range)): > 0.1 µM
CDK12 % Inhibition @ 10 μM (compound at 10 μM): 85%

CN(C)C(=O)Oc1cc(NC(=O)Cc2ccc(C3CCN(C#N)CC3)nc2)ncc1Cl [Compound 101, 5-chloro-2-(2-(6-(1-cyanopiperidin-4-yl)pyridin-3-yl)acetamido)pyridin-4-yl dimethylcarbamate]
IC50 (IC50 μM (in range)): > 0.1 µM
inhibition at 10 µM: 86%

N#CN1CCC=C(c2ccc(CC(=O)Nc3cc(O[C@H]4CCOC4)c(Cl)cn3)cn2)C1 [Compound 41, (S)-N-(5-chloro-4-((tetrahydrofuran-3-yl)oxy)pyridin-2-yl)-2-(1′-cyano-1′,2′,5′,6′-tetrahydro-[2,3′-bipyridin]-5-yl)acetamide]
IC50 (read-out: IC50 μM (in range)): < 0.01 µM
inhibition at 10 µM (compound at 10 μM): 96%

N#CN1CCC=C(c2ccc(CC(=O)Nc3cc(O[C@@H]4CCOC4)c(Cl)cn3)cn2)C1 [Compound 40, (R)-N-(5-chloro-4-((tetrahydrofuran-3-yl)oxy)pyridin-2-yl)-2-(1′-cyano-1′,2′,5′,6′-tetrahydro-[2,3′-bipyridin]-5-yl)acetamide]
IC50 (read-out: IC50 μM (in range)): < 0.01 µM
inhibition at 10 µM (compound at 10 μM): 91%

COc1cc(NC(=O)Cc2ccc(C3=CC4CCC3CN4C#N)nc2)ncc1Cl (stereo not drawn) [Compound 81, N-(5-chloro-4-methoxypyridin-2-yl)-2-(6-(2-cyano-2-azabicyclo[2.2.2]oct-5-en-5-yl)pyridin-3-yl)acetamide]
IC50 (read-out: IC50 μM (in range)): < 0.01 µM
inhibition at 10 µM (compound at 10 μM): 87%

COc1cc(NC(=O)C(C)c2ccc(C3=CCN(C#N)CC3)nc2)ncc1Cl (stereo not drawn) [Compound 51, N-(5-chloro-4-methoxypyridin-2-yl)-2-(1′-cyano-1′,2′,3′,6′-tetrahydro-[2,4′-bipyridin]-5-yl)propanamide]
IC50 (read-out: IC50 μM (in range)): < 0.01 µM
inhibition at 10 µM (compound at 10 μM): 102%

CNC(=O)[C@H](C)Oc1cc(NC(=O)Cc2ccc(-c3cccc(C#N)n3)nc2)ncc1Cl [Compound 190, 2-((5-chloro-2-(2-(6′-cyano-[2,2′-bipyridin]-5-yl)acetamido)pyridin-4-yl)oxy)-N-methylpropanamide]
IC50 (read-out: IC50 μM (in range)): < 0.01 µM
inhibition at 10 µM (compound at 10 μM): 87%

COc1cc(NC(=O)Cc2ccc(C3=CCN(C#N)C(C)C3)nc2)ncc1Cl (single isomer, unassigned) [Compound 68, N-(5-chloro-4-methoxypyridin-2-yl)-2-(1′-cyano-2′-methyl-1′,2′,3′,6′-tetrahydro-[2,4′-bipyridin]-5-yl)acetamide]
IC50 (read-out: IC50 μM (in range)): < 0.01 µM
CDK12 % Inhibition @ 10 μM (compound at 10 μM): 87%

CNC(=O)C(C)Oc1cc(NC(=O)Cc2ccc(C3CCCN(C#N)C3)nc2)ncc1Cl (single isomer, unassigned) [Compound 91, 2-((5-chloro-2-(2-(6-(1-cyanopiperidin-3-yl)pyridin-3-yl)acetamido)pyridin-4-yl)oxy)-N-methylpropanamide]
IC50 (read-out: IC50 μM (in range)): 0.01 to 0.1 µM
CDK12 % Inhibition @ 10 μM (compound at 10 μM): 95%

COc1cc(NC(=O)Cc2ccc(C3=CC4CCC(C3)N4C#N)nc2)ncc1Cl (stereo not drawn) [Compound 73, N-(5-chloro-4-methoxypyridin-2-yl)-2-(6-(8-cyano-8-azabicyclo[3.2.1]oct-2-en-3-yl)pyridin-3-yl)acetamide]
IC50 (read-out: IC50 μM (in range)): < 0.01 µM
inhibition at 10 µM (compound at 10 μM): 87%

CN1CCCC1COc1cc(NC(=O)Cc2ccc(C3=CCN(C#N)CC3)nc2)ncc1Cl (stereo not drawn) [Compound 54, N-(5-chloro-4-((1-methylpyrrolidin-2-yl)methoxy)pyridin-2-yl)-2-(1′-cyano-1′,2′,3′,6′-tetrahydro-[2,4′-bipyridin]-5-yl)acetamide]
IC50 (read-out: IC50 μM (in range)): > 0.1 µM
inhibition at 10 µM (compound at 10 μM): 77%

COc1cc(NC(=O)Cc2ccc(C3=CCCN(C#N)C3)cc2)ncc1Cl [Compound 114, N-(5-chloro-4-methoxypyridin-2-yl)-2-(4-(1-cyano-1,2,5,6-tetrahydropyridin-3-yl)phenyl)acetamide]
IC50 (read-out: IC50 μM (in range)): < 0.01 µM
inhibition at 10 µM (compound at 10 μM): 91%

CC(C)Oc1cc(NC(=O)Cc2ccc(C3=CCN(C#N)CC3)nc2)ncc1Cl [Compound 21, N-(5-chloro-4-isopropoxypyridin-2-yl)-2-(1′-cyano-1′,2′,3′,6′-tetrahydro-[2,4′-bipyridin]-5-yl)acetamide]
IC50 (read-out: IC50 μM (in range)): < 0.01 µM
inhibition at 10 µM (compound at 10 μM): 94%

COc1cc(NC(=O)Cc2ccc(-c3cc(N4CCC(C)(O)C4)cc(C#N)n3)nc2)ncc1Cl (stereo not drawn) [Compound 194, N-(5-chloro-4-methoxypyridin-2-yl)-2-(6′-cyano-4′-(3-hydroxy-3-methylpyrrolidin-1-yl)-[2,2′-bipyridin]-5-yl)acetamide]
IC50 (read-out: IC50 μM (in range)): > 0.1 µM
inhibition at 10 µM (compound at 10 μM): 94%

CNC(=O)[C@H](C)Oc1cc(NC(=O)Cc2ccc(-c3cnc(C#N)nc3)nc2)ncc1Cl [Compound 151, (S)-2-((5-chloro-2-(2-(6-(2-cyanopyrimidin-5-yl)pyridin-3-yl)acetamido)pyridin-4-yl)oxy)-N-methylpropanamide]
IC50 (read-out: IC50 μM (in range)): 0.01 to 0.1 µM
inhibition at 10 µM (compound at 10 μM): 79%

CN1C2CCC1CC(Oc1cc(NC(=O)Cc3ccc(C4=CCCN(C#N)C4)nc3)ncc1Cl)C2 (stereo not drawn) [Compound 62, N-(5-chloro-4-((8-methyl-8-azabicyclo[3.2.1]octan-3-yl)oxy)pyridin-2-yl)-2-(1′-cyano-1′,2′,5′,6′-tetrahydro-[2,3′-bipyridin]-5-yl)acetamide]
IC50 (read-out: IC50 μM (in range)): < 0.01 µM
inhibition at 10 µM (compound at 10 μM): 96%

CN1CCC(Oc2cc(NC(=O)Cc3ccc(C4=CCN(C#N)CC4)nc3)ncc2Cl)C1 (stereo in doubt) [Compound 30, (S)-N-(5-chloro-4-((1-methylpyrrolidin-3-yl)oxy)pyridin-2-yl)-2-(1′-cyano-1′,2′,3′,6′-tetrahydro-[2,4′-bipyridin]-5-yl)acetamide]
IC50 (read-out: IC50 μM (in range)): 0.01 to 0.1 µM
inhibition at 10 µM (compound at 10 μM): 82%
